Measurements reported in publication PMC5099976 (ACS chemical biology, 2016).

Legend:
[1] = tested on: A156T NS3/4A protease variant; assay type: binding, Hepatitis C Virus; settings: A156T relative to WT; Table S4
[2] = target: A156T NS3/4A protease variant (Hepatitis C virus genotype 1a, UniProt P27958, A1182T/C1073S/C1078L/C1185S/I1043Q/I1044E/I1098T/L1039E/L1040E/L1047Q/N1200S/T1100M/T1173A/V1687N); assay type: binding; settings: binding A156T protease; ITC at 25 °C
[3] = target: WT genotype 1a NS3/4A protease (Hepatitis C virus genotype 1a, UniProt P27958, C1073S/C1078L/C1185S/I1043Q/I1044E/I1098T/L1039E/L1040E/L1047Q/N1200S/T1100M/T1173A); experiment: Isothermal titration calorimetry, WT protease; assay type: binding; settings: for Ki: WT protease, Table S4
[4] = binding WT protease, ITC at 25 °C

With `C=C[C@@H]1C[C@]1(NC(=O)[C@@H]1C[C@@H]2CN1C(=O)[C@H](C(C)(C)C)NC(=O)O[C@@H]1C[C@H]1CCCCCc1nc3ccc(OC)cc3nc1O2)C(=O)NS(=O)(=O)C1CC1` [MK-5172, reference compound] the “enthalpic change due to A156T mutation” value [1] was 2.7 kcal/mol and the “entropic loss due to A156T mutation” value [1] was 2.2 kcal/mol.

`CCc1nc2ccc(OC)cc2nc1O[C@@H]1C[C@H]2C(=O)N[C@]3(C(=O)NS(=O)(=O)C4CC4)C[C@H]3/C=C\CCCCC[C@H](NC(=O)OC(C)(C)C)C(=O)N2C1` [5172-mcP1P3] was tested, and the “enthalpic change due to A156T mutation” value [1] was -0.5 kcal/mol, the “entropic loss due to A156T mutation” value [1] was 3.3 kcal/mol and the enthalpy of binding [2] was -6.3 kcal/mol. The Ki [3] was 1.96 nM, the Ki ([3]; listed as P1–P3) was 2 nM and the enthalpy of binding [3, 4] was -5.8 kcal/mol. For the same molecule, the “entropic contribution to binding (−TΔS)” value [3, 4] was -6.0 kcal/mol.
